Reference: the supplement of paper PMC10307832

How the values were obtained:
Assay in all cases: relative viability (nuclei count vs DMSO), 5 days (fraction); higher = more cells survive
[1] = compound: C[C@@H](Oc1cc(-c2cnn(C3CCNCC3)c2)cnc1N)c1c(Cl)ccc(F)c1Cl [Crizotinib] + Cc1nc(NC(=O)N2CCC[C@H]2C(N)=O)sc1-c1ccnc(C(C)(C)C(F)(F)F)c1 [Alpelisib] (partner 2 µM)
Method in brief: (§1)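 Relative viability equals treated-well nuclei counts divided by vehicle-well nuclei counts. Counts came from 4× images of lung cancer cell lines grown in 1536-well plates for 5 days after pin-tool dosing on the day after seeding. Dosing used one drug alone or a fixed anchor-drug dose plus five library-drug doses (not always all listed) in √10 steps, and values are medians of duplicate plates.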

[2] = compound: O=C(c1cc(Cc2n[nH]c(=O)c3ccccc23)ccc1F)N1CCN(C(=O)C2CC2)CC1 [Olaparib] + CCNC(=O)c1noc(-c2cc(C(C)C)c(O)cc2O)c1-c1ccc(CN2CCOCC2)cc1 [Luminespib] (partner 0.01 µM)
Method in brief: as §1

[3] = compound: C[C@@H](Oc1cc(-c2cnn(C3CCNCC3)c2)cnc1N)c1c(Cl)ccc(F)c1Cl [Crizotinib] + NC(=O)Nc1cc(-c2cccc(F)c2)sc1C(=O)N[C@H]1CCCNC1 [AZD7762] (partner 0.2 µM)
Method in brief: as §1

[4] = compound: O=C(c1cc(Cc2n[nH]c(=O)c3ccccc23)ccc1F)N1CCN(C(=O)C2CC2)CC1 [Olaparib] + CC(=O)Nc1cccc(-n2c(=O)n(C3CC3)c(=O)c3c(Nc4ccc(I)cc4F)n(C)c(=O)c(C)c32)c1 [Trametinib] (partner 0.02 µM)
Method in brief: as §1

## EBC-1
[1]; first compound 0.01 µM
  relative viability: 0.746
[1]; first compound 0.03162 µM
  relative viability: 0.823
[1]; first compound 0.1 µM
  relative viability: 0.543
[1]; first compound 0.3162 µM
  relative viability: 0.202
[1]; first compound 1 µM
  relative viability: 0.269

## EKVX
[1]; first compound 0.01 µM
  relative viability: 0.849
[1]; first compound 0.03162 µM
  relative viability: 0.967
[1]; first compound 0.1 µM
  relative viability: 0.792
[1]; first compound 0.3162 µM
  relative viability: 0.905
[1]; first compound 1 µM
  relative viability: 0.864
[2]; first compound 0.08 µM
  relative viability: 1.03
[2]; first compound 0.253 µM
  relative viability: 0.831
[2]; first compound 2.53 µM
  relative viability: 0.791
[2]; first compound 8 µM
  relative viability: 0.784
[3]; first compound 0.01 µM
  relative viability: 0.67
[3]; first compound 0.03162 µM
  relative viability: 0.742
[3]; first compound 0.1 µM
  relative viability: 0.647
[3]; first compound 0.3162 µM
  relative viability: 0.685
[3]; first compound 1 µM
  relative viability: 0.726
[4]; first compound 0.08 µM
  relative viability: 0.425
[4]; first compound 0.253 µM
  relative viability: 0.427
[4]; first compound 2.53 µM
  relative viability: 0.313
[4]; first compound 8 µM
  relative viability: 0.362

## EMC-BAC-2
[1]; first compound 0.01 µM
  relative viability: 0.76
[1]; first compound 0.03162 µM
  relative viability: 0.818
[1]; first compound 0.1 µM
  relative viability: 0.715
[1]; first compound 1 µM
  relative viability: 0.781
[2]; first compound 0.08 µM
  relative viability: 1.12
[2]; first compound 0.253 µM
  relative viability: 1.02
[2]; first compound 2.53 µM
  relative viability: 0.955
[2]; first compound 8 µM
  relative viability: 0.646
[3]; first compound 0.01 µM
  relative viability: 1.07
[3]; first compound 0.03162 µM
  relative viability: 1.1
[3]; first compound 0.1 µM
  relative viability: 1.05
[3]; first compound 1 µM
  relative viability: 1.08
[4]; first compound 0.08 µM
  relative viability: 0.971
[4]; first compound 0.253 µM
  relative viability: 0.844
[4]; first compound 2.53 µM
  relative viability: 0.932
[4]; first compound 8 µM
  relative viability: 0.806

## EPLC-272H
[1]; first compound 0.01 µM
  relative viability: 0.862
[1]; first compound 0.03162 µM
  relative viability: 0.854
[1]; first compound 0.1 µM
  relative viability: 0.942
[1]; first compound 0.3162 µM
  relative viability: 0.864
[1]; first compound 1 µM
  relative viability: 1.02
[2]; first compound 0.08 µM
  relative viability: 0.291
[2]; first compound 0.253 µM
  relative viability: 0.321
[2]; first compound 2.53 µM
  relative viability: 0.254
[2]; first compound 8 µM
  relative viability: 0.279
[3]; first compound 0.01 µM
  relative viability: 0.209
[3]; first compound 0.03162 µM
  relative viability: 0.19
[3]; first compound 0.1 µM
  relative viability: 0.263
[3]; first compound 1 µM
  relative viability: 0.35
[4]; first compound 0.08 µM
  relative viability: 0.363
[4]; first compound 0.253 µM
  relative viability: 0.272
[4]; first compound 2.53 µM
  relative viability: 0.306
[4]; first compound 8 µM
  relative viability: 0.287

## H3255
[1]; first compound 0.01 µM
  relative viability: 0.622
[1]; first compound 0.03162 µM
  relative viability: 0.73
[1]; first compound 0.1 µM
  relative viability: 0.705
[1]; first compound 0.3162 µM
  relative viability: 0.62
[1]; first compound 1 µM
  relative viability: 0.639
[2]; first compound 0.08 µM
  relative viability: 0.885
[2]; first compound 0.253 µM
  relative viability: 0.832
[2]; first compound 2.53 µM
  relative viability: 0.907
[2]; first compound 8 µM
  relative viability: 0.819
[3]; first compound 0.01 µM
  relative viability: 0.833
[3]; first compound 0.03162 µM
  relative viability: 0.88
[3]; first compound 0.1 µM
  relative viability: 0.819
[3]; first compound 1 µM
  relative viability: 0.923
[4]; first compound 0.08 µM
  relative viability: 0.652
[4]; first compound 0.253 µM
  relative viability: 0.633
[4]; first compound 2.53 µM
  relative viability: 0.583
[4]; first compound 8 µM
  relative viability: 0.567

## HARA
[1]; first compound 0.01 µM
  relative viability: 0.859
[1]; first compound 0.03162 µM
  relative viability: 0.836
[1]; first compound 0.1 µM
  relative viability: 0.863
[1]; first compound 0.3162 µM
  relative viability: 0.881
[1]; first compound 1 µM
  relative viability: 0.767
[2]; first compound 0.08 µM
  relative viability: 1.22
[2]; first compound 0.253 µM
  relative viability: 0.531
[2]; first compound 2.53 µM
  relative viability: 0.8
[2]; first compound 8 µM
  relative viability: 0.523
[3]; first compound 0.01 µM
  relative viability: 0.216
[3]; first compound 0.03162 µM
  relative viability: 0.274
[3]; first compound 0.1 µM
  relative viability: 0.679
[3]; first compound 0.3162 µM
  relative viability: 0.382
[3]; first compound 1 µM
  relative viability: 0.516
[4]; first compound 0.08 µM
  relative viability: 0.882
[4]; first compound 0.253 µM
  relative viability: 0.66
[4]; first compound 2.53 µM
  relative viability: 0.732
[4]; first compound 8 µM
  relative viability: 0.632

## HCC-15
[1]; first compound 0.01 µM
  relative viability: 0.846
[1]; first compound 0.03162 µM
  relative viability: 0.938
[1]; first compound 0.1 µM
  relative viability: 0.906
[1]; first compound 0.3162 µM
  relative viability: 0.848
[1]; first compound 1 µM
  relative viability: 0.956
[2]; first compound 0.08 µM
  relative viability: 0.462
[2]; first compound 0.253 µM
  relative viability: 0.372
[2]; first compound 2.53 µM
  relative viability: 0.346
[2]; first compound 8 µM
  relative viability: 0.191
[3]; first compound 0.01 µM
  relative viability: 1.07
[3]; first compound 0.03162 µM
  relative viability: 0.721
[3]; first compound 0.1 µM
  relative viability: 1.2
[3]; first compound 1 µM
  relative viability: 1.14
[4]; first compound 0.08 µM
  relative viability: 0.422
[4]; first compound 0.253 µM
  relative viability: 0.387
[4]; first compound 2.53 µM
  relative viability: 0.39
[4]; first compound 8 µM
  relative viability: 0.353

## HCC-44
[1]; first compound 0.01 µM
  relative viability: 0.808
[1]; first compound 0.03162 µM
  relative viability: 0.801
[1]; first compound 0.1 µM
  relative viability: 0.853
[1]; first compound 0.3162 µM
  relative viability: 0.744
[1]; first compound 1 µM
  relative viability: 0.815
[2]; first compound 0.08 µM
  relative viability: 1.44
[2]; first compound 0.253 µM
  relative viability: 0.984
[2]; first compound 2.53 µM
  relative viability: 0.449
[2]; first compound 8 µM
  relative viability: 0.411
[3]; first compound 0.01 µM
  relative viability: 0.971
[3]; first compound 0.03162 µM
  relative viability: 0.997
[3]; first compound 0.1 µM
  relative viability: 1.04
[3]; first compound 0.3162 µM
  relative viability: 0.936
[3]; first compound 1 µM
  relative viability: 1.02
[4]; first compound 0.08 µM
  relative viability: 1.04
[4]; first compound 0.253 µM
  relative viability: 0.949
[4]; first compound 2.53 µM
  relative viability: 1.01
[4]; first compound 8 µM
  relative viability: 0.996
